Experimental data taken from patent US20240199677A1, “GLYCOSYLTRANSFERASE INHIBITORS” (CALIFORNIA INSTITUTE OF TECHNOLOGY, priority 2018, published 2024).
Converted amounts (≈) assume the structure as drawn.

Tests used:
[1] = tested on: Panc-1 cells; assay: Cell viability assay (FIG. 5), Panc-1; type: cell-based; details: after about 3 days; 0.44 μM, 1.77 μM, and 7.08 μM
Protocol: (§1) The cytotoxic activity of 11 against AsPc-1 and Panc-1 cells was also measured through cell viability assays (FIG. 5). […] Similarly, the percentage of viable Panc-1 cells was near-zero after about 3 days in the presence of 11 (0.44 μM, 1.77 μM, and 7.08 μM).

[2] = Hemolysis, sheep blood; type: cell-based; details: sheep, sheep blood
[3] = tested on: sheep blood; assay: Hemolysis, sheep blood; type: cell-based
[4] = tested on: Panc-1 cells; assay: Boyden Chamber migration assay, Panc-1; type: cell-based; details: FIG. 7, versus Gemcitabine, Taxol, Tunicamycin
[5] = tested on: AsPc-1 cells; assay: Scratch (wound healing) assay, AsPc-1; type: cell-based; details: FIG. 9, versus Gemcitabine
[6] = tested on: AsPc-1; assay: Cytotoxicity MTT assay, AsPc-1; type: cell-based; details: Homo sapiens, ASPC1; read-out: Cytotoxicity IC50 AsPc-1
Protocol: (§2) Selected molecules were tested for cytotoxicity (IC50) in cancer and healthy cells via a MTT colorimetric assay.
(§3) Each cell was cultured in recommended medium by ATCC, and the IC50 data were obtained with each cell line.

[7] = tested on: HCT 116; assay: Cytotoxicity MTT assay, HCT 116; type: cell-based; details: Homo sapiens, HCT-116, read-out: Cytotoxicity IC50 HCT 116
Protocol: as §2, §3

[8] = tested on: HPAF-II; assay: Cytotoxicity MTT assay, HPAF-II; type: cell-based; details: Homo sapiens, HPAF-II; read-out: Cytotoxicity IC50 HPAF-II
Protocol: as §2, §3

[9] = tested on: AsPc-1 cells; assay: Synergistic assay (checkerboard), 11 and Gemcitabine; type: cell-based
Protocol: (§4) The FIC index was calculated according to the following equation. ΣFIC=FICA+FICB=CA/MICA+CB/MICB where MICA and MICB are MIC of drugs A and B, CA and CB are the concentrations of drugs A and B used in combination. In these interaction studies, ΣFIC of less than 0.5 represents synergistic activity.
These experiments were performed in the same manner as those of Example 7.

[10] = tested on: C. difficile spores; assay: Spore viability testing; type: cell-based; details: x2 MIC, 24 hours
[11] = Water solubility; type: physicochemical
[12] = tested on: AsPc-1 cells; assay: Synergistic assay (checkerboard), 11 and Paclitaxel; type: cell-based
Protocol: as §4

[13] = tested on: AsPc-1 cells; assay: Cell viability assay (FIG. 5), AsPc-1; type: cell-based; details: after 4 days; 1.77 μM, 3.54 μM, and 14.17 μM
Protocol: as §1

[14] = tested on: LoVo; assay: Cytotoxicity MTT assay, LoVo; type: cell-based; details: Homo sapiens, LoVo; read-out: Cytotoxicity IC50 LoVo
Protocol: as §2, §3

[15] = tested on: MDA-MB-435S; assay: Cytotoxicity MTT assay, MDA-MB-435S; type: cell-based; details: Homo sapiens, MDA-MB-435S; read-out: Cytotoxicity IC50 MDA-MB-435S
Protocol: as §2, §3

[16] = Cytotoxicity MTT assay, HepG2; type: cell-based; details: human
[17] = tested on: L12210; assay: Cytotoxicity MTT assay, L12210; type: cell-based; details: read-out: Cytotoxicity IC50 L12210
Protocol: as §2, §3

[18] = target: DPAGT1 (Homo sapiens (Human), UniProt Q9H3H5); assay: DPAGT1 inhibition (FIG. 6); type: biochemical
DPAGT1, sequence (Q9H3H5 whole entry, looked up): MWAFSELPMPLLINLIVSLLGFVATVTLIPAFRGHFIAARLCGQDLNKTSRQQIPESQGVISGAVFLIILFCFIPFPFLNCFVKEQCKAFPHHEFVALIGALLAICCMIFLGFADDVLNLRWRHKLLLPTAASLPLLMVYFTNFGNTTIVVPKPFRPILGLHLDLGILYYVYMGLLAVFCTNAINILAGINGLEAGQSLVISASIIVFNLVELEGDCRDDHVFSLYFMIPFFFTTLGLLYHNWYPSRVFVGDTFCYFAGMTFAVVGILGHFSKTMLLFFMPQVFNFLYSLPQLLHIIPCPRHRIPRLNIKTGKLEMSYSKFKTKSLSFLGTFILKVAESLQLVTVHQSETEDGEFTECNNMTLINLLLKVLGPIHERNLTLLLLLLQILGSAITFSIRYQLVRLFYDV

[19] = tested on: N-glycosylation of β-catenin; assay: Western blot, N-glycosylation of β-catenin (FIG. 6); type: cell-based; details: concentrations as low as
[20] = tested on: C. perfringens; type: cell-based; details: FIG. 4
[21] = tested on: Panc-1; assay: Cytotoxicity MTT assay, Panc-1; type: cell-based; details: Homo sapiens, PANC-1; read-out: Cytotoxicity IC50 Panc-1
Protocol: as §2, §3

[22] = tested on: Caco-2; assay: Cytotoxicity MTT assay, Caco-2; type: cell-based; details: Homo sapiens, Caco-2; read-out: Cytotoxicity IC50 Caco-2
Protocol: as §2, §3

[23] = Homo sapiens, ASPC1, 11 alone, AsPc-1 cells, read-out: IC50 A

With `NC[C@H]1O[C@@H](O[C@H]([C@H]2O[C@@H](n3ccc(=O)[nH]c3=O)[C@H](O)[C@@H]2O)[C@H](NCCCC(=O)NCc2ccc(N3CCC(Oc4ccc(C(F)(F)F)cc4)CC3)cc2)C(N)=O)[C@H](O)[C@@H]1O` [Compound 11] the “Percentage of viable Panc-1 cells” value [1] was “near-zero”, the IC50 [2] was 206000 nM and the IC50 [3] was 206000 nM. The Panc-1 migratory cells [4] was “fewer Panc-1 migratory cells than Gemcitabine, Taxol, and Tunicamycin”, the “AsPc-1 cell migration, scratch assay” value [5] was “less AsPc-1 cell migration than Gemcitabine” and the IC50 [6] was 950 nM. For the same compound, the IC50 [7] was 3540 nM, the IC50 [8] was < 98 nM and the AsPc-1 cells dead/alive ([9]; Compound 11 0.0488281 μM + Gemcitabine 0.024414 μM) was “alive”. For the same compound, the AsPc-1 cells dead/alive ([9]; Compound 11 0.0488281 μM + Gemcitabine 0.048828 μM) was “alive”, the AsPc-1 cells dead/alive ([9]; Compound 11 0.0488281 μM + Gemcitabine 0.097656 μM) was “dead” and the AsPc-1 cells dead/alive ([9]; Compound 11 0.0488281 μM + Gemcitabine 0.195313 μM) was “dead”. For the same compound, the AsPc-1 cells dead/alive ([9]; Compound 11 0.0488281 μM + Gemcitabine 0.390625 μM) was “dead”, the AsPc-1 cells dead/alive ([9]; Compound 11 0.0976563 μM + Gemcitabine 0.024414 μM) was “alive” and the AsPc-1 cells dead/alive ([9]; Compound 11 0.0976563 μM + Gemcitabine 0.048828 μM) was “alive”. For the same compound, the AsPc-1 cells dead/alive ([9]; Compound 11 0.0976563 μM + Gemcitabine 0.097656 μM) was “dead”, the AsPc-1 cells dead/alive ([9]; Compound 11 0.0976563 μM + Gemcitabine 0.195313 μM) was “dead” and the AsPc-1 cells dead/alive ([9]; Compound 11 0.0976563 μM + Gemcitabine 0.390625 μM) was “dead”. For the same compound, the AsPc-1 cells dead/alive ([9]; Compound 11 0.1953125 μM + Gemcitabine 0.024414 μM) was “alive”, the AsPc-1 cells dead/alive ([9]; Compound 11 0.1953125 μM + Gemcitabine 0.048828 μM) was “alive” and the AsPc-1 cells dead/alive ([9]; Compound 11 0.1953125 μM + Gemcitabine 0.097656 μM) was “dead”. The AsPc-1 cells dead/alive ([9]; Compound 11 0.1953125 μM + Gemcitabine 0.195313 μM) was “dead”, the AsPc-1 cells dead/alive ([9]; Compound 11 0.1953125 μM + Gemcitabine 0.390625 μM) was “dead” and the AsPc-1 cells dead/alive ([9]; Compound 11 0.390625 μM + Gemcitabine 0.024414 μM) was “alive”. The AsPc-1 cells dead/alive ([9]; Compound 11 0.390625 μM + Gemcitabine 0.048828 μM) was “alive”, the AsPc-1 cells dead/alive ([9]; Compound 11 0.390625 μM + Gemcitabine 0.097656 μM) was “dead” and the AsPc-1 cells dead/alive ([9]; Compound 11 0.390625 μM + Gemcitabine 0.195313 μM) was “dead”. The AsPc-1 cells dead/alive ([9]; Compound 11 0.390625 μM + Gemcitabine 0.390625 μM) was “dead”, the AsPc-1 cells dead/alive ([9]; Compound 11 0.78125 μM + Gemcitabine 0.024414 μM) was “alive” and the AsPc-1 cells dead/alive ([9]; Compound 11 0.78125 μM + Gemcitabine 0.048828 μM) was “alive”. The AsPc-1 cells dead/alive ([9]; Compound 11 0.78125 μM + Gemcitabine 0.097656 μM) was “dead”, the AsPc-1 cells dead/alive ([9]; Compound 11 0.78125 μM + Gemcitabine 0.195313 μM) was “dead” and the AsPc-1 cells dead/alive ([9]; Compound 11 0.78125 μM + Gemcitabine 0.390625 μM) was “dead”. For the same compound, the “Σ FIC” value ([9]; Entry 1: A 11 CA […] + B Gemcitabine CB 0.37 μM) was 0.3, the “Σ FIC” value ([9]; Entry 2: A 11 CA 0.22 μM + B Gemcitabine CB 0.37 μM) was 0.47 and the IC50 [9, 23] was 980 nM. For the same compound, the “Concentration in combination resulting in AsPc-1 cell death” value ([9]; as low as, 11 together with Gemcitabine) was 0.0488 µM, the “Effect of combination of 11 and Gemcitabine” value ([9]; both combinations tested) was “synergistic effect” and the “Effect on viability of C. difficile spores (CFU)” value [10] was “caused loss of viability of C. difficile spores”. For the same compound, the “Water solubility, times greater than 10” value ([11]; relative to 10) was 200 times, the solubility ([11]; water) was 22 mg/mL (≈ 25.4 mM) and the “Σ FIC” value ([12]; Entry 1: A 11 CA 14.2 nM + B Paclitaxel CB 0.4 nM) was 0.224. For the same compound, the “Σ FIC” value ([12]; Entry 2: A 11 CA 14 nM + B Paclitaxel CB 0.88 nM) was 0.16, the “Σ FIC” value ([12]; Entry 3: A 11 CA 14 nM + B Paclitaxel CB 7 nM) was 0.27 and the “Σ FIC” value ([12]; Entry 4: A 11 CA 220 nM + B Paclitaxel CB 40 nM) was 0.224. For the same compound, the “Σ FIC” value ([12]; Entry 5: A 11 CA 110 nM + B Paclitaxel CB 88 nM) was 0.114, the IC50 [12, 23] was 982 nM and the “Effect of combination of 11 and Taxol” value ([12]; all five combinations) was “synergistic effect”. For the same compound, the AsPc-1 cell viability [13] was “Nearly all AsPc-1 cells were killed”, the IC50 [14] was 220 nM and the IC50 [15] was 7090 nM. For the same compound, the IC50 [16] was > 60000 nM, the IC50 [17] was > 100000 nM and the IC50 [18] was 260 nM. For the same compound, the “Lowest concentration inhibiting N-glycosylation of β-catenin” value [19] was 0.39 nM, the “Antibacterial activity against C. perfringens” value [20] was “displayed antibacterial activity” and the IC50 [21] was < 98 nM. The IC50 [22] was > 60000 nM.
